Entries after “also recorded” stand apart in the source; their conditions may differ. Where two headings read alike, the source gives them in different places.
Key:
rat thoracic aorta rings = experiment: Ex vivo rat thoracic aorta rings (TARs) assay; type: cell-based; details: for anti-angiogenesis activity (microvessel outgrowth) at 5 μM: compared with bestatin at same concentration; for microvessel outgrowth from thoracic aorta ring: indicated concentrations, treated each day for 5 days
Procedure: Matrigel (100 μL; BD biosciences, NJ) was added into test well of 96-well plates and then allowed to polymerize for 0.5 h at 37 °C. Sprague–Dawley rats that were 4 to 6 weeks old were sacrificed and aortas were harvested. Each aorta was cut into 1 mm slices and embedded in additional 100 μL of Matrigel in 96-well plates. After that, the rings were incubated for 30 min at 37 °C and 5% CO2. Aorta rings were treated with the vehicle (0.5% DMSO) or compounds each day for 5 days and photographed on the sixth day at ×200 magnification. All experiments involving laboratory animals were performed with the approval by the institutional guidelines of Animal Care and Use Committee at Shandong University.

[1] = target: T1, microsomal APN from porcine kidney microsomes (Sus scrofa, UniProt P15145); experiment: In vitro APN inhibitory assay (l-leu-p-nitroanilide substrate); type: biochemical; details: mean ± SD, n ≥ 3
T1 construct: microsomal APN from porcine kidney microsomes (Biocol); purchased Biocol; host or cells: porcine kidney microsomes (tissue-derived)
T1 sequence (P15145 1-963): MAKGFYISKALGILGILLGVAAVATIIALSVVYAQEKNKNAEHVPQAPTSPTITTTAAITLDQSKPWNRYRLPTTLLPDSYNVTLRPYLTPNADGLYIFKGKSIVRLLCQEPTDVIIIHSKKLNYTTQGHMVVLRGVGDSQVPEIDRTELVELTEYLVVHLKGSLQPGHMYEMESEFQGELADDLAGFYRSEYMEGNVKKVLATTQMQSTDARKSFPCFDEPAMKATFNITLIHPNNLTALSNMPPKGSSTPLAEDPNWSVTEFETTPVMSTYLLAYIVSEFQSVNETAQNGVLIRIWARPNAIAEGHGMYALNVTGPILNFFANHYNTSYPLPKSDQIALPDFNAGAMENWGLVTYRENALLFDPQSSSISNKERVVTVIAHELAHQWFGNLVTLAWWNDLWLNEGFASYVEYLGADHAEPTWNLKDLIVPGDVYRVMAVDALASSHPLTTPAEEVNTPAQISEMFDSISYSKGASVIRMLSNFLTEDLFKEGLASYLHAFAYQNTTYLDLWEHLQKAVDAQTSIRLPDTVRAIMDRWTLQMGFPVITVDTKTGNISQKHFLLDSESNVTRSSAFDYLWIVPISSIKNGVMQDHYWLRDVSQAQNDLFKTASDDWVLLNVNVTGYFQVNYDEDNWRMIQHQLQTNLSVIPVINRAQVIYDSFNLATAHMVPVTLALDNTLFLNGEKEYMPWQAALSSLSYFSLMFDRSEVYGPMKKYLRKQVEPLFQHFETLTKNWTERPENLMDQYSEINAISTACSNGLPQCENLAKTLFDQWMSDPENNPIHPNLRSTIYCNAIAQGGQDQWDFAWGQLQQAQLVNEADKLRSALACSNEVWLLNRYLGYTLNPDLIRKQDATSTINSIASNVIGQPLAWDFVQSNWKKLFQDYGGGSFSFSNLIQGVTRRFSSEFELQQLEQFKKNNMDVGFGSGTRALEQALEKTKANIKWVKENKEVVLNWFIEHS
Procedure: The inhibitory activities of target compounds against APN were determined using l-leu-p-nitroanilide as substrate and microsomal APN from porcine kidney microsomes (Biocol) in 50 mM PBS, pH 7.2 as enzyme. Briefly, inhibitors (40 μL), PBS (145 μL), substrate (5 μL) and APN solution (10 μL) were added into 96-well plates. The mixture was incubated at 37 °C for 30 min. […] The inhibition rates were calculated based on the ultraviolet absorption readout of tested wells relative to those of control wells, and the IC50 values were calculated using Prism non-linear curve fitting method.

HDAC8 = target: T2, HDAC8 (Homo sapiens, UniProt Q9BY41); experiment: In vitro HDACs inhibitory assay (fluorogenic substrate), HDAC8; type: biochemical
T2 construct: purchased BPS Bioscience
T2 sequence (Q9BY41 1-377): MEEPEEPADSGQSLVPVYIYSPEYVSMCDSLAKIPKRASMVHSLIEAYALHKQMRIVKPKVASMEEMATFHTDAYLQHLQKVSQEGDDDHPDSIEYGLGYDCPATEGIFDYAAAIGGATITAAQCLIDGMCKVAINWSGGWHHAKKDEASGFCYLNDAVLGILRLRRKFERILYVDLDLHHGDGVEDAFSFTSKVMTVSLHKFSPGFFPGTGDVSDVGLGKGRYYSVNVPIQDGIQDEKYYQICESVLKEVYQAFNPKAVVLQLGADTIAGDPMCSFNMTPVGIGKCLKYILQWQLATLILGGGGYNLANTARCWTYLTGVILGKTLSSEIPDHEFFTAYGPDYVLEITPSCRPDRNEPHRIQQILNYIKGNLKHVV
Procedure: (§1) All the HDAC enzymes were brought from BPS Bioscience. Ten μL of enzyme solution (HDAC1, HDAC6 or HDAC8) was mixed with different concentrations of tested compound (50 μL). The mixture was incubated at 37 °C for 5 min, followed by adding 40 μL fluorogenic substrate (Boc-Lys(acetyl)-AMC for HDAC1 and HDAC6, Boc-Lys(triflouroacetyl)-AMC for HDAC8). After incubation at 37 °C for 30 min, the mixture was quenched by addition of 100 μL of developer containing trypsin and Trichostatin A. Over another incubation at 37 °C for 20 min, fluorescence intensity was measured using a microplate reader at excitation and emission wavelengths of 390 nm and 460 nm, respectively. The inhibition rates were calculated from the fluorescence intensity readout of tested wells relative to those of control wells, and the IC50 values were calculated using Prism non-linear curve fitting method.

HDAC1 = target: T3, HDAC1 (Homo sapiens, UniProt Q13547); experiment: In vitro HDACs inhibitory assay (fluorogenic substrate), HDAC1; type: biochemical
T3 construct: purchased BPS Bioscience
Procedure: as §1

HDAC6 = target: T4, HDAC6 (Homo sapiens, UniProt Q9UBN7); experiment: In vitro HDACs inhibitory assay (fluorogenic substrate), HDAC6; type: biochemical
T4 construct: purchased BPS Bioscience
T4 sequence (Q9UBN7 1-1215): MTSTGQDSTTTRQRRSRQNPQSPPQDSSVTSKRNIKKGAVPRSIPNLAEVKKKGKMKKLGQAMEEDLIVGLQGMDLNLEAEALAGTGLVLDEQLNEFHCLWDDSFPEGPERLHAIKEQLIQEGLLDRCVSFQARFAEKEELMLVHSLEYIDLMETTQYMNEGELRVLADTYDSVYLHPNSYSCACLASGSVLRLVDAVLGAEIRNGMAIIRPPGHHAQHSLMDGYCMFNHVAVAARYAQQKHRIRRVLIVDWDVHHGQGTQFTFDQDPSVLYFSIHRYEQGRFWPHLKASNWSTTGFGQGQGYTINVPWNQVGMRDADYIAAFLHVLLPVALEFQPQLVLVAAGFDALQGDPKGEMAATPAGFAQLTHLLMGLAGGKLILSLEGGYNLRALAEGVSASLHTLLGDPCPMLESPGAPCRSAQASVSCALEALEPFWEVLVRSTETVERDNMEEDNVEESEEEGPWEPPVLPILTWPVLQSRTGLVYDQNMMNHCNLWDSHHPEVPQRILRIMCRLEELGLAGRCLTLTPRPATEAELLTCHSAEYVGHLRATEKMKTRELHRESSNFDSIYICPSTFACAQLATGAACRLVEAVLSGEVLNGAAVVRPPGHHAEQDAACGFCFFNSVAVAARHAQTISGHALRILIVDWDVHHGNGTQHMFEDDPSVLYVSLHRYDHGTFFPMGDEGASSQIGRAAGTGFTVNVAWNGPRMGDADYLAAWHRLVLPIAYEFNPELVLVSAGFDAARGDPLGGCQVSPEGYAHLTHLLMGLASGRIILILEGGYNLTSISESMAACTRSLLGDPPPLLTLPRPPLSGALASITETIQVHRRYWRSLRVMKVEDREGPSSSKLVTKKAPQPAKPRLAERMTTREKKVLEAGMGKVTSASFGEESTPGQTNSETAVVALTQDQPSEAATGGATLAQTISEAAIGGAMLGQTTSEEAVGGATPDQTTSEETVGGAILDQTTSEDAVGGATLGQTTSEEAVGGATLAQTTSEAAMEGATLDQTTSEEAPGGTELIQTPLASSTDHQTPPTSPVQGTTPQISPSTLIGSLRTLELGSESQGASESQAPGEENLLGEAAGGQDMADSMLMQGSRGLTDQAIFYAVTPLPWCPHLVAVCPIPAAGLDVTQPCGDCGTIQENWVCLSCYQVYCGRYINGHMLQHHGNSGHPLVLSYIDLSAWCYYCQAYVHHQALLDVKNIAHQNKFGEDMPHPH
Procedure: as §1

RPMI-8226 cells = experiment: Western blot analysis of protein levels in RPMI-8226 cells; type: cell-based, human; details: for HDAC1, HDAC6 and HDAC8 protein levels (western blot) / HDAC decreasing effect under cotreatment with proteasome inhibitor bortezomib: 24 h treatment; for acetyl-histone H3 and acetyl-α-tubulin levels (intracellular target engagement) / HDAC1 and HDAC6 protein levels (western blot): 6 h treatment; for HDAC decreasing effect under cotreatment with proteasome inhibitor bortezomib: pre-incubated with 10 nM bortezomib
Procedure: The RPMI-8226 cells were plated in flat-bottom six-well plates and allowed to grow for 12 h, and then treated with compounds or DMSO for a specific time period. Then, the cells were washed twice with cold PBS and lysed in ice-cold RIPA buffer, which comprised 50 mM Tris Base, 150 mM NaCl, 5 mM EDTA, 0.1% (v/v) SDS, 0.5% (v/v) sodium deoxycholate and 1% (v/v) Triton-x-100. Lysates were cleared by centrifugation. Protein concentrations were determined using the BCA assay. Equal amounts of cell extracts were then resolved by SDS-PAGE, transferred to nitrocellulose membrane and probed with HDAC1 antibody, HDAC6 antibody, HDAC8 antibody, acetyl-histone H3 antibody, acetyl-α-tubulin antibody and β-actin antibody, respectively. The membrane was washed twice with TBST buffer before being incubated with secondary antibodies. Images were acquired using a GE ImageQuant LAS 4000.

[2] = read-out: Inhibitory Rates at 10 μM, HDAC8
[3] = read-out: Inhibitory Rates at 10 μM, HDAC1
[4] = read-out: Inhibitory Rates at 10 μM, HDAC6

T3 sequence (Q13547 whole entry): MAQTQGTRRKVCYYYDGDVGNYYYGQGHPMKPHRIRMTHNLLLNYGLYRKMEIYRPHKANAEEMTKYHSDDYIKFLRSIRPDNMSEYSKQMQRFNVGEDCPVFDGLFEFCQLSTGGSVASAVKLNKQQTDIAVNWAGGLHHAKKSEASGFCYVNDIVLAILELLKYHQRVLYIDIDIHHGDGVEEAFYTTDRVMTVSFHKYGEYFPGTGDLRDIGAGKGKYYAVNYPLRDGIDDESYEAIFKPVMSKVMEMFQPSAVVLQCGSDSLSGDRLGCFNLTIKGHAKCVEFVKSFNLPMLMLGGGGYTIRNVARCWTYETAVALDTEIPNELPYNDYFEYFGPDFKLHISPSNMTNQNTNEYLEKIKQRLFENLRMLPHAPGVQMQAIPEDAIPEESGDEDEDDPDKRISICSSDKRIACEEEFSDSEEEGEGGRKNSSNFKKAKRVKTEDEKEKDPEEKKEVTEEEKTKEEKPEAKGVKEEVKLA

Row | Structure (SMILES) | anti-angiogenesis activity (microvessel outgrowth) at 5 μM (rat thoracic aorta rings) | microvessel outgrowth from thoracic aorta ring (rat thoracic aorta rings) | IC50 [1] [nM] | IC50 (HDAC8; mean ± SD, n ≥ 3) [nM] | inhibition at 10 µM (HDAC8; read-out: Inhibitory Rates at 10 μM, HDAC8, 10 μM) [%] | IC50 (HDAC1; mean ± SD, n ≥ 3) [nM] | inhibition at 10 µM (HDAC1; read-out: Inhibitory Rates at 10 μM, HDAC1, 10 μM) [%] | IC50 (HDAC6; mean ± SD, n ≥ 3) [nM] | inhibition at 10 µM (HDAC6; read-out: Inhibitory Rates at 10 μM, HDAC6, 10 μM) [%] | HDAC1, HDAC6 and HDAC8 protein levels (western blot) (RPMI-8226 cells; 1 μM to 4 μM) | acetyl-histone H3 and acetyl-α-tubulin levels (intracellular target engagement) (RPMI-8226 cells) | HDAC decreasing effect under cotreatment with proteasome inhibitor bortezomib (RPMI-8226 cells) | HDAC1 and HDAC6 protein levels (western blot) (RPMI-8226 cells; up to 20 μM) | inhibition at 10 µM (HDAC8; [2]) [%] | inhibition at 10 µM (HDAC1; [3]) [%] | inhibition at 10 µM (HDAC6; [4]) [%] | HDAC1, HDAC6 and HDAC8 protein levels (western blot) (RPMI-8226 cells; 5 μM) | HDAC1 and HDAC6 protein levels (western blot) (RPMI-8226 cells; indicated concentrations)
1 | CC(C)C[C@H](NC(=O)[C@@H](O)[C@H](N)Cc1ccccc1)C(=O)NCCCCCC(=O)Nc1ccc(NC(=O)CCCCCCC(=O)NO)cc1.O=C(O)C(F)(F)F [P1, N^1-(4-(6-((S)-2-((2S,3R)-3-Amino-2-hydroxy-4-phenylbutanamido)-4-methylpentanamido)hexanamido)phenyl)-N^8-hydroxyoctanediamide trifluoroacetate] | superior anti-angiogenesis activities relative to bestatin | effectively inhibited the microvessel outgrowth in a dose-dependent manner | 3430 ± 140 | 694 | > 90 | 30 | > 90 | 11.5 | > 90 | significantly decrease the levels of HDAC1, HDAC6 and even HDAC8 in a dose-dependent manner | increased levels of acetyl-histone H3 (the HDAC1 substrate) and acetyl-α-tubulin (the HDAC6 substrate) | could not reverse | did not lead to HDAC1 or HDAC6 depletion |  |  |  |  | 
2 | CC(C)C[C@H](NC(=O)[C@@H](O)[C@H](N)Cc1ccccc1)C(=O)NCCOCCOCCNC(=O)c1cccc(C(=O)NO)c1.O=C(O)C(F)(F)F [P2, N^1-((11S,14S,15R)-15-Amino-14-hydroxy-11-isobutyl-10,13-dioxo-16-phenyl-3,6-dioxa-9,12-diazahexadecyl)-N^3-hydroxyisophthalamide trifluoroacetate] | superior anti-angiogenesis activities relative to bestatin; also recorded: almost completely inhibit the microvessel outgrowth | effectively inhibited the microvessel outgrowth in a dose-dependent manner | 1670 ± 30 |  |  |  |  |  |  |  |  |  |  | 64 | 66 | 76 |  | 
3 | CC(C)C[C@H](NC(=O)[C@@H](O)[C@H](N)Cc1ccccc1)C(=O)NCCOCCOCC(=O)Nc1cccc(C(=O)NO)c1 [P3, 3-((11S,14S,15R)-15-Amino-14-hydroxy-11-isobutyl-10,13-dioxo-16-phenyl-3,6-dioxa-9,12-diazahexadecanamido)-N-hydroxybenzamide] | superior anti-angiogenesis activities relative to bestatin | effectively inhibited the microvessel outgrowth in a dose-dependent manner | 2650 ± 160 |  |  |  |  |  |  |  |  |  |  | 51 | 67 | 71 |  | 
4 | O=C(CCCCCCC(=O)Nc1ccccc1)NO [SAHA] |  |  |  |  |  |  |  |  |  |  | potently inhibited the intracellular HDAC | could not reverse |  |  |  |  | effectively lead to the downregulation of HDAC1, HDAC6 and HDAC8 | without influencing the levels of HDAC1 and HDAC6

Source: article PMC7662900, “Development of a Bestatin-SAHA Hybrid with Dual Inhibitory Activity against APN and HDAC” (Molecules, 2020)
